# Experiments:
# [1] = target: T1, E. coli LpxC C63A (Escherichia coli, UniProt P0A725, C63A); assay: fluorescence-based E. coli LpxC C63A enzyme inhibition assay; type: biochemical; conditions: Ki E. coli LpxC C63A, from IC50 via Cheng–Prusoff
# T1 construct: made in house; host or cells: E. coli BL21(DE3)
# Protocol: In order to determine the inhibitory activities of the compounds of interest toward E. coli LpxC, a fluorescence-based enzyme assay was deployed, in which the formed deacetylated natural product UDP-3-O-[(R)-3-hydroxymyristoyl]glucosamine (2) is transformed into a fluorescent isoindole with o-phthaldialdehyde and 2-mercaptoethanol.[48],[49] […] The KM of E. coli LpxC C63A was determined experimentally using a mass spectrometry-based LpxC assay (Figure S8, Supporting Information, vide infra).
# A fluorescence-based microplate assay for LpxC activity was performed as described by Clements et al.[48] The wells in a black, nonbinding, 96-well fluorescence microplate (Greiner Bio One, Frickenhausen) were filled with 93 μL of 26.9 μM UDP-3-O-[(R)-3-hydroxymyristoyl]-N-acetylglucosamine in assay buffer [40 mM sodium morpholinoethanesulfonic acid (pH 6.0), 80 μM dithiothreitol, 0.02% Brij 35]. In order to assay the inhibitors at final concentrations from 20 nM up to 20 μM, 2 μL of a respective dilution of the compounds in DMSO were added. The addition of 5 μL of a solution of purified LpxC (10 μg mL^–1) in assay buffer led to final concentrations of 25 μM UDP-3-O-[(R)-3-hydroxymyristoyl]-N-acetylglucosamine, 15 nM E. coli LpxC C63A, 2% DMSO, and from 20 nM up to 20 μM inhibitor. The microplate was incubated for 30 min at 37 °C in a plate shaker. Then, the biochemical reaction was stopped by adding 40 μL of 0.625 M sodium hydroxide. The reaction mixture was further incubated for 10 min and neutralized by adding 40 μL of 0.625 M acetic acid. The deacetylated product UDP-3-O-[(R)-3-hydroxymyristoyl]glucosamine was converted into a fluorescing isoindole by adding 120 μL of an o-phthaldialdehyde-2-mercaptoethanol solution, which was prepared by dissolving 10 mg of o-phthaldialdehyde in 1 mL of methanol, diluting the mixture with 24 mL of a sodium borate buffer (0.1 M), and finally adding 2.5 μL of 2-mercaptoethanol.[49] Fluorescence was measured with a TriStar^2 S LB 942 plate reader (Berthold, Bad Wildbad) at 340 nm excitation and 460 nm emission wavelengths. Each assay was performed at least three times on separate days. The IC50 values were calculated via Probit-log concentration graphs with the aid of the software Origin and were subsequently converted into Ki values using the Cheng–Prusoff equation.[75],[76]
# [2] = tested on: E. coli BL21(DE3); assay: disc diffusion assay; type: cell-based; conditions: 0.15 μmol per 6 mm disc
# Protocol: (§1) Besides measuring the inhibitory activities toward E. coli LpxC C63A, the antibacterial activities of the synthesized hydroxamic acids were evaluated by determining their minimal inhibitory concentrations (MIC) in broth dilution tests as well as by performing disc diffusion assays (Table 1).
# (§2) The disc diffusion assays against E. coli BL21(DE3) and the defective strain E. coli D22 were performed as follows: liquid cultures of the bacteria were grown overnight in lysogeny broth (LB)[73] at 37 °C and 200 rpm. 150 μL of an overnight cell suspension was spread evenly onto LB agar plates. 0.15 μmol of each compound (dissolved in 10 or 15 μL DMSO) were applied onto circular filter paper (Ø = 6 mm, Cytiva). Pure DMSO, serving as a negative control, and CHIR-090, serving as a positive control, were also spotted. The agar plates were incubated overnight at 37 °C, and the diameter of the zone of growth inhibition was measured for each compound. Each assay was performed at least three times on separate days.
# [3] = tested on: E. coli D22; assay: disc diffusion assay; type: cell-based; conditions: 0.15 μmol per 6 mm disc
# Protocol: as §1, §2
# [4] = tested on: E. coli BL21(DE3); assay: MIC, broth microdilution; type: cell-based; conditions: Escherichia coli, 20 h, 37 °C, LB
# Protocol: as §1
# (§3) The MIC values of the compounds were determined by means of the microdilution method using 96-well plates.
# (§4) The overnight suspension was diluted 1:1000 in fresh LB. 10 μL of a 2-fold dilution series of the compounds in DMSO and 90 μL of LB were dispensed to each well of a 96-well plate. Then, 100 μL of the inoculated medium was added, resulting in 5 × 10^5 cfu mL^–1, 5% DMSO, and a final concentration range of the test compounds between 64 and 0.016 μg mL^–1. The plates were incubated for 20 h at 37 °C. The MIC was defined as the lowest concentration of the compounds that prevented visible growth after incubation. Each assay was performed at least three times on separate days.
# [5] = tested on: E. coli D22; assay: MIC, broth microdilution; type: cell-based; conditions: Escherichia coli, 20 h, 37 °C, LB
# Protocol: as §1, §3, §4
# [6] = tested on: LpxC–9 complex; assay: NMR-ILOE (interligand NOESY) of fragment hits with LpxC and 9; conditions: fragment hits binding the LpxC–9 complex by STD and WaterLogsy; 6 μM LpxC
# Protocol: In order to find fragments specifically addressing the UDP-binding pocket, which can be linked to the LpxC inhibitors, a fragment screen was performed against LpxC bound to 9. First, 650 fragments in cocktails of five were tested for binding to the LpxC–9 complex using STD-NMR and WaterLogsy experiments. Then, fragment hits identified as potential binders were tested one by one against the LpxC–9 complex by STD-NMR and WaterLogsy experiments performed under identical experimental conditions. A total of 97 fragment hits were identified as binders, leading to a hit rate of 15%.
# Then, NMR-ILOE experiments were performed with selected fragment hits in the presence of LpxC and the unsubstituted hydroxamic acid 9. This allowed the identification of fragments that bind in the enzyme’s UDP-binding pocket near the methylene group in the α-position of the inhibitor’s hydroxamate moiety. Weak interligand NOESY peaks were observed between inhibitor 9 and nine fragments. By contrast, no interligand NOESY peaks were observed between compound 9 and the other ten fragments. […] Unexpectedly, we also observed interligand NOESY between the fragment protons and protons of the morpholino moiety.
# Standard 1D and STD NMR spectra were acquired at 20 °C with a Bruker 600 MHz NMR spectrometer equipped with a 5 mm cryoprobe. Parameters for the STD experiments (saturation frequency and saturation time) were identical for all samples. […] STD saturation time was 2 s. WaterLOGSY mixing time was 1.5 s. Two NOESY experiments were recorded with mixing times of 0.6 and 0.3 s. STD and WaterLOGSY spectra were recorded with the same NMR tubes containing 3 μM LpxC, compound 9 at 500 μM, and fragments at 500 μM. For NOESY experiments, NMR tubes contained 6 μM LpxC.
# Temperature was set to 293 K for all NMR experiments.
# T1 sequence (P0A725 whole entry C63A): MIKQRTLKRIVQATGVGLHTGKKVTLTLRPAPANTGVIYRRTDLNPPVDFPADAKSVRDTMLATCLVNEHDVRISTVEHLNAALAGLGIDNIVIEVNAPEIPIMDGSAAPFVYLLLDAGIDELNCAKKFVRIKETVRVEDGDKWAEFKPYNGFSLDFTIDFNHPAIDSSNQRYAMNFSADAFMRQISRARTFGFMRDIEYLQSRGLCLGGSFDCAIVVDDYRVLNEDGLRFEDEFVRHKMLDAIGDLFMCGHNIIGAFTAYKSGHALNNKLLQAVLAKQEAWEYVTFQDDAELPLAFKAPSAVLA
Structure (SMILES),Inter-Ligand NOESY peaks between the fragment and 9 [6],other results
"O=C(NO)[C@@H](CN(Cc1ccccc1)Cc1ccccc1)OCc1ccc(C#Cc2ccc(CN3CCOCC3)cc2)cc1 [(R)-37, (R)-3-(Dibenzylamino)-N-hydroxy-2-[(4-{[4-(morpholinomethyl)phenyl]ethynyl}benzyl)oxy]propanamide]",–,Ki [1]: > 2540 nM; Inhibition zone E. coli BL21(DE3) [2]: ≤6 mm; Inhibition zone E. coli D22 [3]: ≤6 mm; MIC [4]: > 16 µg/mL; MIC [5]: > 16 µg/mL
COc1ccc2[nH]ccc2c1 [F1],yes,–
Oc1ccc(-n2ccnc2)cc1 [F2],yes,–
c1ccc2[nH]ccc2c1 [F3],yes,–
NC(=O)Cc1c[nH]c2ccc(Cl)cc12 [F4],yes,–
c1ccc2c(c1)CCCN2 [F5],yes,–
Nc1cnc2ccccc2c1 [F6],yes,–
Nc1c2c(nc3ccccc13)CCCC2 [F7],no,–
c1ccc(C2NCCn3cccc32)cc1 (centres unmarked) [F8],no,–
OCc1ccc(-n2cccn2)cc1 [F9],no,–
c1ccc(Nc2ccccn2)nc1 [F10],no,–
NCc1ccc(-c2ccccc2)cc1 [F11],yes,–
c1ccc2[nH]ncc2c1 [F12],no,–
